Experimental findings from patent US11939304B1, “Ethyl 6-(5-(3-fluorophenyl)-4-phenyl-4H-1,2,4-triazol-3-ylthio)hexanoate as an antimicrobial compound” (KING FAISAL UNIVERSITY, priority 2023, dated 2024) are described below.

The melting point is the temperature, or range, at which the solid turns liquid.

For data set [1], the system named is Bacillus cereus. The data set can be described thus: agar plate disc-diffusion, antibacterial inhibition zone. It counts as cell-based. The following applies: nutrient agar, 37° C., 48 hours, DMSO zone subtracted. How it is done:
(§1) The agar plate disc-diffusion method was applied. […] The discs were then placed onto the surface of agar plates (nutrient agar for bacteria and Sabouraud's dextrose agar for fungi) seeded with the test organism. Each plate contained 15 mL of the agar medium, previously seeded with 0.2 mL of the broth culture of each organism pregrown for 18 hours. The plates were incubated at 37° C. for 48 hours, and 72 hours for fungi. The inhibition zones were measured in mm. Discs impregnated with DMSO were used as a control, and its inhibition zone was subtracted from the tested compound actual inhibition zone.

Data set [2] concerns Escherichia coli. The data set is described as above. It counts as cell-based. The following applies: nutrient agar, 37° C., 48 hours, DMSO zone subtracted. As to the method: as §1
In data set [3] the test system is Pseudomonas aeruginosa. The description is as above. It counts as cell-based. The following applies: nutrient agar, 37° C., 48 hours, DMSO zone subtracted. How it is done: as §1
Data set [4] has as its system Staphylococcus aureus. The description is as above. It counts as cell-based. The settings on record: nutrient agar, 37° C., 48 hours, DMSO zone subtracted. How it is done:
as §1

For data set [5], the system named is Aspergillus flavus. The data set can be described thus: agar plate disc-diffusion, antifungal inhibition zone. It counts as cell-based. The settings on record: Sabouraud's dextrose agar, 37° C., 72 hours, DMSO zone subtracted. As to the method: as §1
Background: Agar diffusion results depend on both activity and mobility in agar.

In data set [6] the test system is Chrysosporium keratinophilum. The description is as above. It counts as cell-based. The following applies: Sabouraud's dextrose agar, 37° C., 72 hours, DMSO zone subtracted. As to the method: as §1
Setting [7] is: A = concentration of comp. = 10,000 μL.
Setting [8] is: B = concentration of comp. = 30,000 μL.
The mark [9] stands for this setting: C = concentration of comp. = 50,000 μL.

Turning to `CCOC(=O)CCCCCSc1nnc(-c2cccc(F)c2)n1-c1ccccc1` [III, ethyl 6-(5-(3-fluorophenyl)-4-phenyl-4H-1,2,4-triazol-3-ylthio)hexanoate], the melting point lay in the range of 107 to 109 °C. In addition, the “inhibition zone, Bacillus Cereus, A” value in data set [1] (setting [7]) is given as 28 mm. For the same compound, the “inhibition zone, Bacillus Cereus, B” value in data set [1] (setting [8]) was 30 mm. Further, the “inhibition zone, Bacillus Cereus, C” value in data set [1] (setting [9]) is reported as 41 mm. Also, the “inhibition zone, Escherichia coli, A” value in data set [2] (setting [7]) stood at 27 mm. In addition, in data set [2] (setting [8]), the “inhibition zone, Escherichia coli, B” value is listed as 35 mm. Further, the “inhibition zone, Escherichia coli, C” value in data set [2] (setting [9]) is 50 mm. In addition, in data set [3] (setting [7]), the “inhibition zone, Pseudomonas aeruginosa, A” value is recorded as 26 mm. The “inhibition zone, Pseudomonas aeruginosa, B” value in data set [3] (setting [8]) was found to be 29 mm. Also, the “inhibition zone, Pseudomonas aeruginosa, C” value in data set [3] (setting [9]) is recorded as 41 mm. The “inhibition zone, Staphylococcus aureus, A” value in data set [4] (setting [7]) is recorded as 12 mm. In addition, in data set [4] (setting [8]), the “inhibition zone, Staphylococcus aureus, B” value is on record as 19 mm. Further, the “inhibition zone, Staphylococcus aureus, C” value in data set [4] (setting [9]) was 23 mm. In addition, in data set [5] (setting [7]), the “inhibition zone, Aspergillus flavus, A” value was 24 mm. The “inhibition zone, Aspergillus flavus, B” value in data set [5] (setting [8]) came out at 27 mm. For the same compound, in data set [5] (setting [9]), the “inhibition zone, Aspergillus flavus, C” value is 38 mm. In data set [6] (setting [7]), the “inhibition zone, Chrysosporium keratinophilum, A” value is 23 mm. In data set [6] (setting [8]), the “inhibition zone, Chrysosporium keratinophilum, B” value is given as 28 mm. Moreover, the “inhibition zone, Chrysosporium keratinophilum, C” value in data set [6] (setting [9]) was determined as 42 mm.
